Structures are written as SMILES. Some results are limits rather than exact numbers.

In the first assay the target is human TREX1 (Homo sapiens (Human), UniProt Q9NSU2). Put plainly: TREX1 Exonuclease Assay. Type of assay: biochemical.
human TREX1, sequence (Q9NSU2 whole entry): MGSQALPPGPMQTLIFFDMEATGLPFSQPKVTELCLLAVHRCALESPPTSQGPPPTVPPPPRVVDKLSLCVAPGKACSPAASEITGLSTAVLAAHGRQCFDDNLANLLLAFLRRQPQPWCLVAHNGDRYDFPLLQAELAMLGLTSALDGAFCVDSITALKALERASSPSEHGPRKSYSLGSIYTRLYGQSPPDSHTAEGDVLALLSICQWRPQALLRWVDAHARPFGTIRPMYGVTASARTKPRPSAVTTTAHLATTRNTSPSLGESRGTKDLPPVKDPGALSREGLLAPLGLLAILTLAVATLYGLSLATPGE
Settings: not given
As to the method: For human TREX1, the nucleotide sequence of the gene construct was codon optimized for expression in the bacterial host. The sequence was incorporated into the pMAL-c5e vector (NEB) downstream of a solubility-promoting MBP (maltose binding protein) fusion partner. The fusion protein product was expressed in E. coli strain BL21 (DE3) (Millipore) and purified in a series of chromatographic steps. Initial steps were conducted using a dextrin sepharose affinity column followed by a Q-sepharose ion exchange column (both GE Healthcare). After the second column the MBP partner was removed by incubation with enterokinase (NEB). Further purification was carried out with the second application of a Q-sepharose column followed by a Superdex 75 (GE Healthcare) size exclusion column. Finally, a heparin sepharose column (GE Healthcare) was applied to remove contaminating nucleotides.
To evaluate the effect of compounds on TREX1 activity, test compounds were serially diluted (11-point, 3-fold) from 10 mM stock solutions and delivered to 384-well low-volume assay plates in 80 nL DMSO using an acoustic dispenser. Next, 4 μL of human TREX1 (0.5 nM), or murine TREX1 (1 nM), diluted in assay buffer (20 mM Tris pH 7.5, 5 mM MgCl2, 100 μg/mL BSA, 0.002% Triton X-100, 2 mM DTT), was added to the assay plate. After incubating for 30 minutes, 4 μL of labeled DNA oligonucleotide (500 nM) in assay buffer was added to initiate TREX1 exonuclease activity. The reaction was allowed to proceed for 45 minutes at room temperature prior to the addition of 4 μL of 150 mM EDTA to halt TREX1 activity.
`COc1c(CNC(=O)[C@@H](CCC(=O)O)N2CCC(CCc3ccccc3)N3C[C@H](N)C[C@H]3C2=O)ccc(Cl)c1Cl` (stereo partly shown) [Example 22] showed a half-inhibitory concentration (IC50) of less than 1000 nM.
The same measure, in the same setting: the result for `N[C@@H]1C[C@H]2C(=O)N([C@H](CCC(=O)O)C(=O)NCc3ccc(Cl)c(Cl)c3F)CCC(CCc3ccccc3)N2C1` (stereo partly shown) [Example 30] reads less than 1000 nM; that for `COc1c(CNC(=O)[C@@H](CCc2nnn[nH]2)N2CCC(CCc3ccccc3)N3C[C@H](N)C[C@H]3C2=O)ccc(Cl)c1Cl` (stereo partly shown) [Example 119], less than 1000 nM.
Regarding `N[C@@H]1C[C@H]2C(=O)N([C@H](CCc3nnn[nH]3)C(=O)NCc3ccc(Cl)c(Cl)c3F)CCC(CCc3ccccc3)N2C1` (stereo partly shown) [Example 120], the 50% inhibitory concentration (IC50) was less than 1000 nM.
Same read-out and setting: as for `CCOc1c(CNC(=O)[C@@H](CCC(=O)O)N2CCC(CCc3ccccc3)N3C[C@H](N)C[C@H]3C2=O)ccc(Cl)c1Cl` (stereo partly shown) [Example 137], the figure is less than 1000 nM.
Same read-out and setting: the result for `CC(C)Oc1c(CNC(=O)[C@@H](CCC(=O)O)N2CCC(CCc3ccccc3)N3C[C@H](N)C[C@H]3C2=O)ccc(Cl)c1Cl` (stereo partly shown) [Example 138] reads less than 1000 nM; that for `CC(C)Oc1c(CNC(=O)[C@@H](CCc2nnn[nH]2)N2CCC(CCc3ccccc3)N3C[C@H](N)C[C@H]3C2=O)ccc(Cl)c1Cl` (stereo partly shown) [Example 144], less than 1000 nM; that for `CCOC(=O)CC[C@H](C(=O)NCc1ccc(Cl)c(Cl)c1)N1CCC(CCc2ccccc2)N2C[C@H](NC(=O)OCC)C[C@H]2C1=O` (stereo partly shown) [Example 145], 10000 to 100000 nM.
`N[C@@H]1C[C@H]2C(=O)N([C@H](CCC(=O)O)C(=O)NCc3ccc(Cl)c(C(F)(F)F)c3)CCC(CCc3ccccc3)N2C1` (stereo partly shown) [Example 146] showed a half-inhibitory concentration (IC50) of less than 1000 nM.

The next assay deals with THP1 Dual cells, ISRE Lucia reporter gene, transfected with G3-YSD DNA. Nature of the assay: Human Cellular EC50 Reporter Assay. Type of assay: cell-based. The conditions noted are these: 72 h, serum-starved cells transfected with G3-YSD 10 ng/ml, three days. The text has this:
Example E is a cell-based assay for TREX1 inhibitors using THP1 Dual™ cells (Invivogen), a human monocyte cell line that has stable integration of an Interferon Stimulated Response Element (ISRE) Lucia reporter gene. The Lucia gene encodes a secreted luciferase reporter protein, under the control of an ISG54 minimal promoter in conjunction with five IFN-stimulated response elements. Activation of the cGAS-STING pathway in THP1 Dual™ cells leads to enhanced luciferase secretion and increased luminescence.
A cell-based assay was established using THP1 Dual™ cells (InvivoGen), a human monocyte cell line that has stable integration of an Interferon Stimulated Response Element (ISRE) Lucia reporter gene. The Lucia gene encodes a secreted luciferase reporter protein, under the control of an ISG54 minimal promoter in conjunction with five IFN-stimulated response elements. Activation of the cGAS-STING pathway in these cells leads to enhanced luciferase secretion. Three days prior to the assay, cells were transferred to a T75 flask at a density of 3.0×10^5 cells/ml in 20 ml of serum-starved media (RPMI 1640 containing 1% Heat-Inactivated FBS, 1× Glutagro, 10 mM HEPES, 1 mM sodium pyruvate, 1×Pen/Strep, 100 μg/ml Normocin, 100 μg/ml Zeocin, 10 μg/ml Blasticidin). On the day of assay cells were collected by centrifugation, washed in 1×DPBS, and resuspended in the 1% serum media at 3.3×10^5 cells/ml. An aliquot of an aqueous solution of the DNA oligonucleotide G3-YSD (InvivoGen) at 1 mg/ml was diluted 100-fold into the transfection reagent LyoVec (InvivoGen) and incubated at ambient temperature for 50 min to allow complex formation. Test compounds in DMSO were transferred to a standard 96-well tissue culture plate via acoustic dispense of 0.54 μl per well. Serum-starved cells were batch transfected with complex at a final DNA concentration of 10 ng/ml for 60 min at ambient temperature before dispensing 180 ul (60,000 cells) per well into the assay plate. The assay plate was then incubated in a humidified chamber at 37° C. in 5% CO2 for three days. An aliquot of 10 μl was removed from each well to combine with 10 μl of the luciferase detection reagent, QUANTI-Luc™ Gold (InvivoGen) in a white 384-well plate. The luminescent signal was then read using an EnVision plate reader (Perkin Elmer). An EC50 for each compound was determined by plotting the signal as a function of log molar concentration and fitting to a four parameter logistic equation. (see Table 32).
In the case of `COc1c(CNC(=O)[C@@H](CCC(=O)O)N2CCC(CCc3ccccc3)N3C[C@H](N)C[C@H]3C2=O)ccc(Cl)c1Cl` (stereo partly shown) [Example 22], the EC50 is less than 1000 nM.
Same read-out and setting: the result for `N[C@@H]1C[C@H]2C(=O)N([C@H](CCC(=O)O)C(=O)NCc3ccc(Cl)c(Cl)c3F)CCC(CCc3ccccc3)N2C1` (stereo partly shown) [Example 30] reads 1000 to 10000 nM; that for `COc1c(CNC(=O)[C@@H](CCc2nnn[nH]2)N2CCC(CCc3ccccc3)N3C[C@H](N)C[C@H]3C2=O)ccc(Cl)c1Cl` (stereo partly shown) [Example 119], less than 1000 nM; that for `N[C@@H]1C[C@H]2C(=O)N([C@H](CCc3nnn[nH]3)C(=O)NCc3ccc(Cl)c(Cl)c3F)CCC(CCc3ccccc3)N2C1` (stereo partly shown) [Example 120], 1000 to 10000 nM.
The same measure, in the same setting: as for `CCOc1c(CNC(=O)[C@@H](CCC(=O)O)N2CCC(CCc3ccccc3)N3C[C@H](N)C[C@H]3C2=O)ccc(Cl)c1Cl` (stereo partly shown) [Example 137], the figure is less than 1000 nM.
Same read-out and setting: the result for `CC(C)Oc1c(CNC(=O)[C@@H](CCC(=O)O)N2CCC(CCc3ccccc3)N3C[C@H](N)C[C@H]3C2=O)ccc(Cl)c1Cl` (stereo partly shown) [Example 138] reads less than 1000 nM.

Another assay relates to MB49-Luc tumor. Nature of the assay: MB49-Luc tumor bearing mice. It is filed as in vivo, C57BL/6 mice. The settings on record: 100 μg intra-tumoral Days 1, 3, 6, 9 plus 10 Gy radiation Day 0; by Day 20; vs vehicle alone, 10 Gy + vehicle, or Example 15B + vehicle. The text has this: The efficacy of the TREX1 inhibitors of the present invention can also be measured in a variety of in vivo assays. Exemplary mammals that can provide models to test the effectiveness of the TREX1 inhibitors of the present invention as anticancer agents include, but are not limited to, mice. Models of tumor growth and other tumor measurements can be used to assess the effectiveness of the anticancer agents described in the current invention. Example F describes an in vivo model of tumor growth in C57BL/6 mice. Compounds of the present invention can be tested in this model for their ability to inhibit growth of tumors. Compounds of the present invention can be used in combinatorial strategies to maximizing the immunogenicity of radiation therapy (Vanpouille-Box (2017) Nature Commun. 8, 81658). […] Ten week old female C57BL/6 mice were purchased from Jackson Laboratory (www.jax.org). During the study, the care and use of animals was conducted in accordance with the regulations of the Association for Assessment and Accreditation of Laboratory 15 Animal Care (AAALAC). […] Tumors were measured in two dimensions using calipers. Tumor volumes were calculated using the formula: volume (mm3)=(length×width2)/2. […]
Regarding `N[C@@H]1C[C@H]2C(=O)N([C@H](CCC(=O)O)C(=O)NCc3ccc(Cl)c(Cl)c3)CCC(CCc3ccccc3)N2C1` (stereo partly shown) [Example 15B], the Tumor volume entry is given as “reduced tumor volumes”.

As usually defined, the IC50 is the concentration at which inhibition is half-maximal. Read a high IC50 as weaker potency in that assay. A word on the EC50: it is the midpoint of the concentration-response curve.

Source of the values: patent US11583538B2, “Substituted pyrrolo[1,2-a]pyrazines and pyrrolo[1,2-a][1,4]diazepines as TREX1 inhibitors” (Venenum Biodesign, LLC, priority 2019, dated 2023).
